One experiment concerns H3R. Further details: method as in earlier work. The settings on record: ref 19 (Vanover et al.); cited from earlier work.
Experiment [1] deals with T1, human histamine H3 receptor (Homo sapiens, UniProt Q9Y5N1).
T1 construct: expressed in transfected cells; host or cells: HEK293
The experiment in a line: Radioligand displacement assay at histamine H3 receptor ([3H]-Nα-methylhistamine, HEK293 membranes). The following applies: HEK293 cells stably expressing human H3R, read-out: Ki [CI 95%] (n), H3R. The experiment is classed as binding. Here is the method:
Radioligand displacement assays were performed as described previously. HEK293 cells stably expressing the human histamine H3 receptor [37] were grown in Dulbecco’s modified Eagle’s medium, supplemented with 2 mM glutamine, 10 mM HEPES, 10% fetal bovine serum, and 10 μL/mL penicillin/streptomycin in an atmosphere of 5% CO2 at 37 °C. Cells were grown to confluence. The medium was removed, and cells were collected in 15 mL ice-cold phosphate-buffered saline (PBS) (140 mM NaCl, 3 mM KCl, 1.5 mM KH2PO4, 8 mM Na2HPO4, pH 7.4). The cell suspension was centrifuged two times at 3000× g for 10 min with subsequent aspiration in 20 mL of PBS buffer at 4 °C. […]
Competition binding experiments were carried out as follows: membranes (20 μg/well in a final volume of 0.2 mL binding buffer) were incubated with [^3H]-N^α-methylhistamine (2 nM), purchased from PerkinElmer (Waltham, MA, USA), and different concentrations of the respective test ligand. […] Non-specific binding was determined in the presence of the selectively acting histamine H3 receptor inverse agonist/antagonist pitolisant (10 μM). […] Liquid scintillation counting using a PerkinElmer MicroBeta Trilux scintillation counter was used to determine the amount of radioactivity collected on the filter used in the current experiment. […]
A general note: In a radioligand displacement assay an active substance lowers the binding of a labelled ligand.

The target of another experiment is T2, hH1R (Homo sapiens, UniProt P35367).
T2 construct: expressed in transfected cells; host or cells: CHO-K1
As to the kind of experiment: [3H]-pyrilamine displacement assay at histamine H1R (CHO-K1 cells). The experiment is classed as binding. The following applies: CHO-K1 cells stably expressing human H1R; [3H]-pyrilamin; read-out: Ki (n), H1R. The procedure:
To determine the human H1R affinity, compounds and reference substances were tested in a [^3H]-pyrilamine displacement assay. The assay was conducted with membrane preparations of CHO-K1 cells stably expressing hH1R. Transfection, cell culture, and membrane preparation were described in detail by Smit and colleagues. For the competition binding assay, membrane fractions (40 μg/well in a final volume of 0.2 mL binding buffer) were incubated with [^3H]-pyrilamine (1 nM) and the test compounds in different concentrations for 120 min at r.t. under shaking. The experimental assays were carried out in triplicate with at least six appropriate concentrations between 0.1 nM and 100 μM for the test compounds. Nonspecific binding was evaluated in the presence of the standard H1R antagonist chlorpheniramine hydrogen maleate at a concentration of 10 µM. The following steps were performed as described before.

Several values for one entry are separate records, joined by “and”; a condition that tells them apart may be missing. Identical values can stand only once. Marks after values point to notes of the source that are not given here.

T1 sequence (Q9Y5N1 whole entry): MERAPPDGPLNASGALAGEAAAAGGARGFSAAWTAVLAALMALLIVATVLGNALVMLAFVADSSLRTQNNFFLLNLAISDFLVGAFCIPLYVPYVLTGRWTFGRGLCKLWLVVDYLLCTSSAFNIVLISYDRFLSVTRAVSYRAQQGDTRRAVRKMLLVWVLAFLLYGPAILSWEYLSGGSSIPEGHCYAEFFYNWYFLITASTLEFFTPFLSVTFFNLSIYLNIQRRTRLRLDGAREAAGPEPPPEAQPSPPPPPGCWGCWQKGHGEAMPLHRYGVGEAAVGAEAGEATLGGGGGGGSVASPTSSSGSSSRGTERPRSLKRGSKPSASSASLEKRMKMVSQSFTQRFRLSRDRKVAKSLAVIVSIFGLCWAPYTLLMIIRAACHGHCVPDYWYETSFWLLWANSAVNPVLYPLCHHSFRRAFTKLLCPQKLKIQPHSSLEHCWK
T2 sequence (P35367 whole entry): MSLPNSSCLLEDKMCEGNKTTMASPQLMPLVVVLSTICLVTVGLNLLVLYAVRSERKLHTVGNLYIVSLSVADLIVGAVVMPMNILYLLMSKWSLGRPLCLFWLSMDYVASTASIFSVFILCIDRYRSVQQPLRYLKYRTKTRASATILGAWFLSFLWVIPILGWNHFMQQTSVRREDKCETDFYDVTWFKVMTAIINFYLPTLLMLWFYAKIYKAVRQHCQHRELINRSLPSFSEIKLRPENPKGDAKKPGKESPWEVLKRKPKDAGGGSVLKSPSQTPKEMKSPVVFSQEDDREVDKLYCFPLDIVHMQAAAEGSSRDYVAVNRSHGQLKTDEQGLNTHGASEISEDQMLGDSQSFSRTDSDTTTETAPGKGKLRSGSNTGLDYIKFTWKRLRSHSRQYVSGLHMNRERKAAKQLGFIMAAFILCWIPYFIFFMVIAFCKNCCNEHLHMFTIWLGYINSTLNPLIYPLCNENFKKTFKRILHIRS

Take `CC(C)COc1ccc(CNC(=O)N(Cc2ccc(F)cc2)C2CCN(C)CC2)cc1` [Pimavanserin, reference compound]: the “inhibition at 10 µM, H3R” value with H3R is “inhibition at 10 µM: <50% ^a”.
As for `CN1CCC(N(Cc2ccc(F)cc2)C(=O)NCc2ccc(OCCCN3CCCCC3)cc2)CC1` [ST-2300, 1-(4-Fluorobenzyl)-1-(1-methylpiperidin-4-yl)-3-{4-[3-(piperidin-1-yl)propoxy]benzyl}urea], the Ki in experiment [1] was 14 nM and 14.4 nM; on hH1R it was more than 5000 nM.

Usually Ki stands for a dissociation constant, usually derived from enzyme kinetics or from competition with a known ligand.

The values above are taken from PMC9138994 (Biomolecules, 2022).
